Results on six compounds are retold here after patent publication US6436649B1, “Method for detecting and/or quantifying a hapten in a homogeneous phase and device for implementation thereof” (priority 1996, dated 2002).

The test system of assay [1] is P99/Q908R/Citro.F. β-lactamases. The note with it: enzymes P99/Q908R/Citro.F.; cited from earlier work.
Assay [2] addresses E. Coli β-lactamase (Escherichia coli, UniProt P00811). The note with it: enzyme E. Coli; cited from earlier work.
The target of assay [3] is P99/Q908R β-lactamases (Enterobacter cloacae, UniProt P05364). The note with it: enzyme P99/Q908R; cited from earlier work.
In assay [4] the target is T1, type C β-lactamases (Enterobacter cloacae, UniProt P05364).
T1 construct: Ki
The note with it: Ki of the parent inhibitor; cited from earlier work.

Assay [5] has as its target Citro.F. β-lactamase (Citrobacter freundii, UniProt P05193). The following applies: enzyme Citro.F.; cited from earlier work.
For assay [6], the system named is T2, type C β-lactamases.
T2 construct: rows headed: Km; kcat
The following applies: selected inhibitors, over the β-lactamases; cited from earlier work.

The target of assay [7] is T3, β-lactamase from E. Coli (Escherichia coli, UniProt P00811). As to the kind of experiment: Inhibitory activity in the presence of anti-nandrolone antibodies. It is filed as biochemical. The following applies: for V1: without antibodies. The text has this:
(§1) The objective of these measurements, by way of example, is the evaluation of the restoration of the predominant part of the enzymatic activity in the presence of a precise quantity of inhibitor.

Assay [8] concerns the target T4, β-lactamase from P99 (Enterobacter cloacae, UniProt P05364).
T4 construct: host or cells: Enterobacter cloacae P99 (strain of origin as printed)
The assay is described as above. Type of assay: biochemical. The note with it: P99, [S] 60, [E] 0.25, [I] 0.2 μM.
Source text: as §1

Assay [9] has as its target T5, β-lactamase from Enterobacter cloacae P99 (Enterobacter cloacae, UniProt P05364).
T5 construct: host or cells: Enterobacter cloacae P99 (strain of origin as printed)
As to the kind of experiment: Inhibitory activity (Ki) on nitrocefin hydrolysis by β-lactamase. It is filed as biochemical. The text has this:
(§2) The choice of the inhibitor depends on the kinetic parameters and on the possibilities of coupling with the hapten to be assayed (presence of functional groups which are not essential for the inhibitory activity). At the enzymatic level, the ideal inhibitor should have a kcat which is as low as possible (very slow rate of degradation) while having a Km which is as low as possible (high affinity for the enzyme) . In the case of the inhibition reactions envisaged, the Km value is close to the constant Ki. The Km can therefore be estimated from an evaluation of the Ki. This is obtained from kinetic measurements carried out in the presence of a reporter substrate with known characteristics, and this in the presence of a variable quantity of inhibitor. The ideal inhibitor should also have a rate constant k+1 (corresponding to the step of binding of the inhibitor to the enzyme) which is as high as possible. Based on this principle, it has been possible to select five inhibitors. They are:
(§3) The measurements were carried out on β-lactamases from different bacterial strains: Enterobacter cloacae P99, Escherichia coli and Citrobacter freundii, symbolized by: P99, E. Coli and C. Freundii.
(§4) The measurements are divided into four parts. […] The second is an evaluation of the inhibitory activity of the inhibitors (Table 9). The third groups together the measurements of enzymatic activity in order to determine the quantity of antibody to be used in the assay. The fourth part comprises the assay of the haptens.
(§5) By way of example, the results of a selective study carried out on this compound are provided. The results presented in Table 9 give the values obtained according to a similar method. […] These measurements determine the concentrations of inhibitor (I) to be used during the assay.

The target in assay [10] is T3, β-lactamase from E. Coli. Described as above. It is filed as biochemical.
Source text: as §2, §3, §4, §5

The target of assay [11] is β-lactamase from C. Freundii (Citrobacter freundii, UniProt P05193). The assay is described as above. Type of assay: biochemical.
Source text: as §2, §3, §4, §5

Assay [12] concerns P99/Q908E/E. Coli β-lactamases. The following applies: enzymes P99/Q908E/E. Coli; cited from earlier work.
Setting [13] is: P99 [E] 0.0625 nM, [S] nitrocefin 50 μM, [I] 0.1 μM.
The mark [14] stands for this setting: P99 [E] 0.0625 nM, [S] nitrocefin 50 μM, [I] 0.3 μM.
[15] abbreviates: P99 [E] 0.0625 nM, [S] nitrocefin 50 μM, [I] 0.4 μM.
Where [16] appears, read: P99 [E] 0.0625 nM, [S] nitrocefin 50 μM, [I] 0.5 μM.
[17] abbreviates: P99 [E] […], [S] nitrocefin 60 μM, [I] 0.2 μM.
[18] abbreviates: P99 [E] […], [S] nitrocefin 60 μM, [I] 0.24 μM.
Where [19] appears, read: E. Coli [E] 1 nM, [S] nitrocefin 150 μM, [I] 0.2 μM.
[20] abbreviates: E. Coli [E] 1 nM, [S] nitrocefin 150 μM, [I] 0.4 μM.
The mark [21] stands for this setting: C. Freundii [E] 0.375 nM, [S] nitrocefin 60 μM, [I] 0.1 μM.
The mark [22] stands for this setting: C. Freundii [E] 0.375 nM, [S] nitrocefin 60 μM, [I] 0.2 μM.

Chain of β-lactamase from C. Freundii (P05193 21-381): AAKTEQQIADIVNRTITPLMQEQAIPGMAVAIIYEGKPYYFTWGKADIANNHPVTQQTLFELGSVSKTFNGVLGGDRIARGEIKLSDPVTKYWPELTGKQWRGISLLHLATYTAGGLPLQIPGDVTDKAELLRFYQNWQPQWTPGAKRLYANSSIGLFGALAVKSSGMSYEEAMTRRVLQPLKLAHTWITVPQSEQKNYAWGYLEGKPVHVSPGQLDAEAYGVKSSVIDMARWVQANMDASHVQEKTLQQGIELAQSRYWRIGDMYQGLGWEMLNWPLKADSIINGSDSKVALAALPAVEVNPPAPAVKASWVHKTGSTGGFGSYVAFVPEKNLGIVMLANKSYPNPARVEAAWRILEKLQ
T3 sequence (P00811 20-377): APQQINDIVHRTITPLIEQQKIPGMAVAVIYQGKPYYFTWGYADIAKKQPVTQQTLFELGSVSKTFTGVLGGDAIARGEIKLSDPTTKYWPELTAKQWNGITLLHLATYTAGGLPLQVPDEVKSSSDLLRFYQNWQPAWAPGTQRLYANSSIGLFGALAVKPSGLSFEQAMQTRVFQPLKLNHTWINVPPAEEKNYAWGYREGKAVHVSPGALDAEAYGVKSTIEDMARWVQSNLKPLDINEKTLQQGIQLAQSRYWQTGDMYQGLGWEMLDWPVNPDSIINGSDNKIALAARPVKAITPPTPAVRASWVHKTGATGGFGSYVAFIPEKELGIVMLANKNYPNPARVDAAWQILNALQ
Chain of E. Coli β-lactamase (P00811 20-377): as above
Chain of Citro.F. β-lactamase (P05193 21-381): as the sequence (P05193 21-381) above

Turning to `CC1(C)S[C@@H]2[C@H](NC(=O)Cc3ccccc3)C(=O)N2[C@H]1C(=O)O` [Benzylpenicillin], in assay [1], the Michaelis constant (Km) was 0.5 µM and the kcat was 20 S^−1. In addition, in assay [2], the Michaelis constant (Km) was 4.4 µM and the kcat was 45 S^−1.

In the case of `CC1(C)S[C@@H]2[C@H](NC(=O)C(C(=O)O)c3ccccc3)C(=O)N2[C@H]1C(=O)O` (stereo partly shown) [Carbenicillin], the Km was 0.01 µM in assay [3], 0.02 µM in assay [2] and 0.0005 µM in assay [5]. Further, the figures for the kcat in [3], in assay [2] and in [5] were 0.002 S^−1, 0.003 S^−1 and 0.004 S^−1, respectively. Besides, the Ki in [4] was 10 nM.

`CO/N=C(\C(=O)N[C@@H]1C(=O)N2C(C(=O)O)=C(COC(N)=O)CS[C@H]12)c1ccco1` [Cefuroxime]: the Km in [3] was 0.02 µM; in [6], 0.02 µM; in assay [2], 0.15 µM. In addition, the kcat in assay [3] is on record as 0.04 S^−1; in [2] it was 0.15 S^−1.

Regarding `CC1(C)S[C@@H]2[C@H](NC(=O)C(C(=O)O[C@H]3CC[C@H]4[C@@H]5CCC6=CC(=O)CC[C@@H]6[C@H]5CC[C@]34C)c3ccccc3)C(=O)N2[C@H]1C(=O)O` (stereo partly shown) [Conjugate 1, nandrolone carbenicillinate], the Vab in assay [7] ([S] 150, [E] 1, [I] 0.24 μM, anti-nandrolone serum dil. 625 x) came out at 307 nM/s; in [7] ([S] 150, [E] 1, [I] 0.24 μM, anti-nandrolone serum dil. 714 x), 299 nM/s; in assay [7] ([S] 150, [E] 1, [I] 1 μM, anti-nandrolone serum dil. 100 x), 211 nM/s; in [7] ([S] 150, [E] 1, [I] 1 μM, anti-nandrolone serum dil. 125 x), 210 nM/s; in assay [7] ([S] 150, [E] 1, [I] 1 μM, anti-nandrolone serum dil. 140 x), 200 nM/s; in [7] ([S] 150, [E] 1, [I] 1 μM, anti-nandrolone serum dil. 200 x) it was 174 nM/s. Further, the Vab in [7] ([S] 150, [E] 1, [I] 1 μM, anti-nandrolone serum dil. 500 x) is given as 123 nM/s; in assay [8] (anti-nandrolone serum dil. 500 x), 200 nM/s; in assay [8] (anti-nandrolone serum dil. 625 x), 200 nM/s; in assay [8] (anti-nandrolone serum dil. 770 x), 189 nM/s; in [8] (anti-nandrolone serum dil. 1000 x), 170 nM/s. For the same compound, the V1 is 210 nM/S in assay [7] ([S] 150, [E] 1, [I] 0.24 μM); 90 nM/S in assay [7] ([S] 150, [E] 1, [I] 1 μM); 131 nM/S in assay [8] (without antibodies); 36 nM/s in assay [9] (setting [13]); 20 nM/s in [9] (setting [14]); 17 nM/s in [9] (setting [15]). Moreover, the V1 in assay [9] (setting [16]) was determined as 16 nM/s; in assay [9] (setting [17]) it was 131 nM/s; in [9] (setting [18]) it was 116 nM/s; in [10] (setting [19]) it was 260 nM/s; in assay [10] (setting [20]), 220 nM/s; in assay [11] (setting [21]), 209 nM/s. Further, the V1 in assay [11] (setting [22]) amounted to 163 nM/s. For the same compound, the Ki in [9] (P99, summary value of the six determinations) was found to be 74 nM; in assay [9] (setting [13]), 76 nM; in [9] (setting [14]), 62 nM; in assay [9] (setting [15]) it was 65 nM; in assay [9] (setting [16]), 74 nM; in assay [9] (setting [17]), 88 nM. Also, the Ki in assay [9] (setting [18]) is 78 nM; in assay [9] (enzyme from P99) it was 70 nM; in assay [10] (setting [19]) it was 800 nM; in [10] (setting [20]), 760 nM; in assay [10] (E. Coli, summary value of the two determinations) it was 780 nM; in assay [11] (setting [21]), 80 nM. For the same compound, the Ki was found to be 62 nM in assay [11] (setting [22]) and 71 nM in assay [11] (C. Freundii, summary value of the two determinations). Besides, the “V0/V1 1” value turned out to be 0.44 in assay [9] (setting [13]); 1.6 in assay [9] (setting [14]); 2.06 in [9] (setting [15]); 2.25 in assay [9] (setting [16]); 0.66 in assay [9] (setting [17]); 0.88 in assay [9] (setting [18]). The “V0/V1 1” value came to 0.19 in assay [10] (setting [19]), 0.41 in assay [10] (setting [20]), 0.15 in assay [11] (setting [21]) and 0.47 in assay [11] (setting [22]).

Consider `Cc1onc(-c2ccccc2)c1C(=O)N[C@@H]1C(=O)N2[C@@H]1SC(C)(C)[C@@H]2C(=O)O` [Oxacillin], for which the kcat in assay [6] is 0.005 s⁻¹. In assay [4], the Ki was 0.5 nM. Moreover, in assay [12], the Km is 0.0005 µM and the kcat was 0.005 S^−1.

With `CC1(C)S[C@@H]2[C@H](NC(=O)[C@H](C(=O)O)c3ccsc3)C(=O)N2[C@H]1C(=O)O` [Ticarcillin], in assay [12], the Km is 0.25 µM and the kcat was 0.045 S^−1.
